Results taken from US8940754B2, “10′-fluorinated Vinca alkaloids provide enhanced biological activity against MDR cancer cells” (priority 2010, dated 2015).
Where two headings read alike, the source gives them in different places.

What was measured:
L1210 = experiment: cells; assay type: cell-based, mouse; settings: Mus musculus
HCT116 = experiment: cells; assay type: cell-based, human; settings: Homo sapiens
HCT116/VM46 = experiment: cells; assay type: cell-based, human; settings: for IC50: Homo sapiens
[1] = system: L1210, HCT116, HCT116/VM46; experiment: cytotoxic activity in the cell-based assays, overall comparison with the parent compound; settings: for enhancement of cytotoxic activity by C-10′ fluorine substitution: vs natural product without fluorine; for fold more potent than the natural products themselves: vs vinblastine / vincristine, Table 2C
[2] = L1210, Table 2B, C10′-substituted vinblastines, single evaluations, read-out: IC50 (nM) L1210
[3] = HCT-116, Table 2B, C10′-substituted vinblastines, single evaluations, read-out: IC50 (nM) HCT116
[4] = HCT-116/VM46, Table 2B, C10′-substituted vinblastines, single evaluations, read-out: IC50 (nM) HCT116/VM46

Structure (SMILES) | IC50 (L1210; L1210, read-out: IC50 (nM) L1210) [nM] | IC50 (HCT116; HCT-116, read-out: IC50 (nM) HCT116) [nM] | IC50 (HCT116/VM46; HCT-116/VM46, read-out: IC50 (nM) HCT116/VM46) [nM] | enhancement of cytotoxic activity by C-10′ fluorine substitution [1] | IC50 (L1210; [2]) [nM] | IC50 (HCT116; [3]) [nM] | IC50 (HCT116/VM46; [4]) [nM] | increased activity against vinblastine resistant cell line (HCT116/VM46) (HCT116/VM46; vs vinblastine) | fold more potent than the natural products themselves [1] | IC50 (L1210; L1210, Table 2C, side-by-side, multiple examinations with several independent samples, read-out: IC50 (nM) L1210) [nM] | IC50 (HCT116; HCT-116, Table 2C, side-by-side, multiple examinations with several independent samples, read-out: IC50 (nM) HCT116) [nM] | IC50 (HCT116/VM46; HCT-116/VM46, Table 2C, side-by-side, multiple examinations with several independent samples, read-out: IC50 (nM) HCT116/VM46) [nM]
CCC1=C[C@@H]2CN(CCc3c([nH]c4ccc(F)cc34)[C@@](C(=O)OC)(c3cc4c(cc3OC)N(C)C3C(O)(C(=O)OC)[C@H](OC(C)=O)[C@]5(CC)C=CCN6CC[C@]43[C@@H]65)C2)C1 (some centres unmarked) [Compound 19a, 10′-fluoroanhydrovinblastine] | 30 | 50 | 290 | about 8 fold | – | – | – | – | – | – | – | –
CC[C@]1(O)C[C@@H]2CN(CCc3c([nH]c4ccc(F)cc34)[C@@](C(=O)OC)(c3cc4c(cc3OC)N(C)C3C(O)(C(=O)OC)[C@H](OC(C)=O)[C@]5(CC)C=CCN6CC[C@]43[C@@H]65)C2)C1 (some centres unmarked) [Compound 19b, 10′-fluorovinblastine] | – | – | – | about 8 fold | 0.7 | 0.9 | 80 | about 8 fold | about 8 fold | – | – | –
CC[C@]1(O)C[C@@H]2CN(CCc3c([nH]c4ccc(OC)cc34)[C@@](C(=O)OC)(c3cc4c(cc3OC)N(C)C3C(O)(C(=O)OC)[C@H](OC(C)=O)[C@]5(CC)C=CCN6CC[C@]43[C@@H]65)C2)C1 (some centres unmarked) [Compound 22b, 10′-methoxyvinblastine] | – | – | – | – | 670 | 720 | > 10000 | – | – | – | – | –
CC[C@]1(O)C[C@@H]2CN(CCc3c([nH]c4ccc(F)cc34)[C@@](C(=O)OC)(c3cc4c(cc3OC)N(C=O)C3C(O)(C(=O)OC)[C@H](OC(C)=O)[C@]5(CC)C=CCN6CC[C@]43[C@@H]65)C2)C1 (some centres unmarked) [Compound 28, 10′-fluorovincristine] | – | – | – | – | – | – | – | – | about 8 fold | 0.7 | 1 | 90
